Laboratory results from patent US10358449B2, “Xanthine derivative” (priority 2015, dated 2019).
Like-named read-outs stand apart in the source and are kept apart here. Marks after values point to notes of the source that are not given here.

Tests used:
CYP3A4 = CYP3A4 (Homo sapiens (Human), UniProt P08684); test: biochemical; assay type: in vitro ADME
Procedure: (§1) 1. Test method: human liver microsomes were used to carry out inhibition activity test of the compounds to CYP enzyme. With the system for incubating human liver microsomes in vitro, the content variation of phenacetin, diclofenac, S-mephenytoin, dextromethorphan and midazolam, which were substrates of human liver microsomes CYP1A2, CYP2C9, CYP2C19, CYP2D6, CYP3A4, were measured simultaneously by cocktail probe drug method (which is a disclosed technology), the effects of TSL-0319 under different concentrations on activity of human liver microsomes CYP1A2, CYP2C9, CYP2C19, CYP2D6, CYP3A4 subtypes are evaluated and relevant IC50 was measured.

CYP2D6 = CYP2D6 (Homo sapiens (Human), UniProt P10635); test: biochemical; assay type: in vitro ADME
Procedure: as §1

CYP1A2 = CYP1A2 (Homo sapiens (Human), UniProt P05177); test: biochemical; assay type: in vitro ADME
Procedure: as §1

CYP2C9 = CYP2C9 (Homo sapiens (Human), UniProt P11712); test: biochemical; assay type: in vitro ADME
Procedure: as §1

CYP2C19 = CYP2C19 (Homo sapiens (Human), UniProt P33261); test: biochemical; assay type: in vitro ADME
Procedure: as §1

[1] = target: humanized recombinant DPP8 (Homo sapiens (Human), UniProt Q6V1X1); test: Drug selectivity experiment in vitro, DPP8; assay type: biochemical
[2] = Pharmacokinetics experiments in CD-1 mice; assay type: in vivo, mouse; settings: for concentration at 0.5 h: 0.500 h; for MRT last: read-out: MRT0-last; for concentration at 0.25 h: 0.250 h; for Plasma drug concentration (ng/ml): LLOQ 3 ng/ml
Procedure: Six healthy CD-1 mice of 7-10 weeks old were randomly separated into two groups. 2 mg/kg and 5 mg/kg TSL-0319 were administrated respectively by intravenous injection and by gavage (2 mg/ml for intravenous injection, made into transparent solution with solution of DMSO/PEG400/H2O=20/60/20; 5 mg/ml for gavage; made into transparent solution with solution of PEG400 (Tween80/H2O=40/10/50); fasting for 12 hours but free drinking before administration; blood was taken from the great saphenous vein or submaxillary veins by time points (time points for taking blood of intravenous injection: 0 h, 0.0833 h, 0.250 h, 0.500 h, 1.00 h, 2.00 h, 4.00 h, 8.00 h, 12.00 h and 24.00 h; time points for taking blood of gavage: 0 h, 0.250 h, 0.50 h, 1.00 h, 2.00 h, 4.00 h, 8.00 h, 12.00 h and 24.0 h) before and after administration, lower limit of quantitation, LLOQ was set at 3 ng/ml.

[3] = tested on: obese mice (B6.Cg-Lepob/JNju); test: Glucose tolerance test of obese mice; assay type: in vivo, mouse; parameters: AUC0-120 min: unit not given beside the values
Procedure: 2. Experimental method: normal mice, obese mice and diabetic mice were used for studying glucose tolerance tests Experimental process of OGTT (Oral Glucose Tolerance Test): fasting for 6 hours before the test begins, 60 min after drug administration, glucose was administrated by gavage (drug concentration 0.6 mg/ml, administration volume 5 ml/kg) (2 g/kg glucose was administrated to diabetic mice; 2 g/kg glucose was administrated to obese mice; and 5 g/kg glucose was administrated to normal mice), blood glucose values at 0 min, 15 min, 30 min, 45 min, 60 min and 120 min are respectively determined after glucose administration, […]

[4] = CD-1, mouse, plasma, oral, gavage 5 mg/kg, read-out: Plasma drug concentration
[5] = CD-1, mouse, plasma, po, gavage 5 mg/kg
[6] = CD-1, mouse, plasma, intravenous injection 2 mg/kg
[7] = CD-1, mouse, plasma, intravenous injection 2 mg/kg, read-out: Plasma drug concentration

humanized recombinant DPP8, sequence (Q6V1X1 whole entry): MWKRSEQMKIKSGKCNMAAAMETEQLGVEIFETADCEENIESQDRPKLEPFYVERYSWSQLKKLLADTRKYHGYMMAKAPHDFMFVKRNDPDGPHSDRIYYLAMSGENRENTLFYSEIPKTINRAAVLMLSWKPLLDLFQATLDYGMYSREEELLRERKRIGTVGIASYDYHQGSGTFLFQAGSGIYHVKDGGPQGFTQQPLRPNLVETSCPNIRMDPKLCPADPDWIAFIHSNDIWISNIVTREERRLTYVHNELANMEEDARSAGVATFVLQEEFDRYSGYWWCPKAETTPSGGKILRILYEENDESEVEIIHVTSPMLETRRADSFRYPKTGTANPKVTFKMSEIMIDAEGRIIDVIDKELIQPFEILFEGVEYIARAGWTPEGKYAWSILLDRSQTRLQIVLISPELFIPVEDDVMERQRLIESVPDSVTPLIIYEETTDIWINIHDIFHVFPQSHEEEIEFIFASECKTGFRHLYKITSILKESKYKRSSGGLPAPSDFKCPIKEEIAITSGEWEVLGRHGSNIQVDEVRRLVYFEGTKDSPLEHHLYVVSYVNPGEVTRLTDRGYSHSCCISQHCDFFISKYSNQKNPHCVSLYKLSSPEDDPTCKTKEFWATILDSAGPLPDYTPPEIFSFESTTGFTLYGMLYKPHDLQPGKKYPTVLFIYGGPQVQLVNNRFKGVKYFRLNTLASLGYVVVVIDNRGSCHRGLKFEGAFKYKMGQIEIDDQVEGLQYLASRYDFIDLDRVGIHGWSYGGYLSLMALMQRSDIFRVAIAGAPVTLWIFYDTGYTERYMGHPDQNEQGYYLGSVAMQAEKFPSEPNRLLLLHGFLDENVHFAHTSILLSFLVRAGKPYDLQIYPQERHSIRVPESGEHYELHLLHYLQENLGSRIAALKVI
CYP2C9, sequence (P11712 whole entry): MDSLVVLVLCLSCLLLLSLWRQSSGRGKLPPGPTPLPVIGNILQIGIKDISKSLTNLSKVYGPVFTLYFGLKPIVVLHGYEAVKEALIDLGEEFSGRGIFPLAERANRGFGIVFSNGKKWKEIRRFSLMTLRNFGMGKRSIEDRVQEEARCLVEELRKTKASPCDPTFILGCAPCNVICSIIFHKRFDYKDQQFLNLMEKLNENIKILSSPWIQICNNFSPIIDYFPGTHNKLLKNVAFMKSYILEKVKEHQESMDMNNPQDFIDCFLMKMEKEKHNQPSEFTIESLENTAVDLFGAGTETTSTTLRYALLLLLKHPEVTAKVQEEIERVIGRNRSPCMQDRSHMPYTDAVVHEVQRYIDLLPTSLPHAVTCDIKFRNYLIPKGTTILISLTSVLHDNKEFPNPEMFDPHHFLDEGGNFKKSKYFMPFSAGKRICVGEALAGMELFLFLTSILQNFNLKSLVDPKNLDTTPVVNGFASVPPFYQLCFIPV
CYP2D6, sequence (P10635 whole entry): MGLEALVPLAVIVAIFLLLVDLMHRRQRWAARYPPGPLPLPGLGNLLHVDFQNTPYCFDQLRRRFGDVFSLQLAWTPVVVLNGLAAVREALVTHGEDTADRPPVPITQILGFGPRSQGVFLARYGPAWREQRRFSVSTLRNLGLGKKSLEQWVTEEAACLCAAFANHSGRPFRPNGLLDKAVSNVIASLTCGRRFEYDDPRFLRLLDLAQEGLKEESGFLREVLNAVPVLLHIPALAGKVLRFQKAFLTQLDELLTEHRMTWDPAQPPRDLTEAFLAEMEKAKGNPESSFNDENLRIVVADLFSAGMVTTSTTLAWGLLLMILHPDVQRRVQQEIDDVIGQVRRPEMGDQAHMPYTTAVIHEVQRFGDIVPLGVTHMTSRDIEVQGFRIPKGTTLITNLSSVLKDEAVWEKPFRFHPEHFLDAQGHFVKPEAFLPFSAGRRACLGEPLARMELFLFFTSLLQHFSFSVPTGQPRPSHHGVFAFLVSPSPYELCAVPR
CYP3A4, sequence (P08684 whole entry): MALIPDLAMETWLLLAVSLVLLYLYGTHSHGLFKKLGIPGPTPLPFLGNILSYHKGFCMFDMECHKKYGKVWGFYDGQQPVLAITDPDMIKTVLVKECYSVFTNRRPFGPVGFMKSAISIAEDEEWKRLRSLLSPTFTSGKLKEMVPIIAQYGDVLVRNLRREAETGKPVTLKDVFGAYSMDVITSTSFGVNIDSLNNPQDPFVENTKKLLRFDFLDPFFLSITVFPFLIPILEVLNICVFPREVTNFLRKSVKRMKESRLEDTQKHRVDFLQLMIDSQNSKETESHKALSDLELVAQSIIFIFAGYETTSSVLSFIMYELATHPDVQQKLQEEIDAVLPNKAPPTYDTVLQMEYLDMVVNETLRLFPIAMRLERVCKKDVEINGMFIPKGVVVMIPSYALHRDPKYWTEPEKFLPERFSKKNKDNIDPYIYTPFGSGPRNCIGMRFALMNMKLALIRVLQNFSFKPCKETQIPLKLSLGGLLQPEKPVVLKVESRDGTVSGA
CYP2C19, sequence (P33261 whole entry): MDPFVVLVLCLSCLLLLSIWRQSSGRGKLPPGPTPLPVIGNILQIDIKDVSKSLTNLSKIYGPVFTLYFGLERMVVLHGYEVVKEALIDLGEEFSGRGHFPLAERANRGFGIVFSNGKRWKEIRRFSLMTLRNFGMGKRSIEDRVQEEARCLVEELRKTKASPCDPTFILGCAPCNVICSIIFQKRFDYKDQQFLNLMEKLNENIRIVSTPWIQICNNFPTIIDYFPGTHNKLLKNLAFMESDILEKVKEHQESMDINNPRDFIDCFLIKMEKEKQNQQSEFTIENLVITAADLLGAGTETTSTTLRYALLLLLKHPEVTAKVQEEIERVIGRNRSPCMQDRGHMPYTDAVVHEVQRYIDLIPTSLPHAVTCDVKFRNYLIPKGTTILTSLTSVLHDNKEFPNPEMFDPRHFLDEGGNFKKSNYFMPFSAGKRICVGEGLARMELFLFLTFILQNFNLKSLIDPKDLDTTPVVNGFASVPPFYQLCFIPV
CYP1A2, sequence (P05177 whole entry): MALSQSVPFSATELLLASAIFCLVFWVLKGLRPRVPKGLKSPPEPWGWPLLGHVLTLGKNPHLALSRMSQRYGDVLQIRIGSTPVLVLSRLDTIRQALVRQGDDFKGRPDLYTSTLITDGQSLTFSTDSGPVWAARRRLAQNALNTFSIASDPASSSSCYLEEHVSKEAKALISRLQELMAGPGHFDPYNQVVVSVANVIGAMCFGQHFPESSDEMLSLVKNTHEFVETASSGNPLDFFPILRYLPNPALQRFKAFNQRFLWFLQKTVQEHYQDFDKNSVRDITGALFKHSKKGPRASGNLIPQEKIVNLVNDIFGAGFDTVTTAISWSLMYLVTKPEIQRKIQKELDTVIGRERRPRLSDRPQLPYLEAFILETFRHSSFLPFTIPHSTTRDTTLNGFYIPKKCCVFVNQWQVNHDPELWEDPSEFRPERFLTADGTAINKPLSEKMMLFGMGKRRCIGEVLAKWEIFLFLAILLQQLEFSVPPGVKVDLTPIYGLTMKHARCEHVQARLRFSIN

## CC#CCn1c(N2CCC[C@@H](N)C2)nc2c1c(=O)n(Cc1nccnc1C#N)c(=O)n2C [Compound I-3, 1-[(3-cyano-pyrazine-2-yl)methyl]-3-methyl-7-(2-butyne-1-yl)-8-[(R)-3-amino-piperidine-1-yl]-xanthine]
CYP3A4
  IC50: > 50 µM
CYP3A4; human, microsomes
  inhibition at 0.05 µM: 0%
  inhibition at 0.15 µM: 0%
  inhibition at 0.5 µM: 4%
  inhibition at 1.5 µM: 4.4%
  inhibition at 5 µM: 8.7%
  inhibition at 15 µM: 17.9%
  inhibition at 50 µM: 44.6%
CYP2D6
  IC50: > 50 µM
CYP2D6; human, microsomes
  inhibition at 0.05 µM: 0%
  inhibition at 0.15 µM: 0%
  inhibition at 0.5 µM: 0%
  inhibition at 1.5 µM: 0%
  inhibition at 5 µM: 0%
  inhibition at 15 µM: 3%
  inhibition at 50 µM: 14.6%
CYP1A2
  IC50: > 50 µM
CYP1A2; human, microsomes
  inhibition at 0.05 µM: 0%
  inhibition at 0.15 µM: 0%
  inhibition at 0.5 µM: 2.2%
  inhibition at 1.5 µM: 4.2%
  inhibition at 5 µM: 6.6%
  inhibition at 15 µM: 20.8%
  inhibition at 50 µM: 41.8%
CYP2C9
  IC50: > 50 µM
CYP2C9; human, microsomes
  inhibition at 0.05 µM: 0%
  inhibition at 0.15 µM: 0%
  inhibition at 0.5 µM: 3.2%
  inhibition at 1.5 µM: 5.7%
  inhibition at 5 µM: 10.5%
  inhibition at 15 µM: 12.1%
  inhibition at 50 µM: 13.9%
CYP2C19
  IC50: > 50 µM
CYP2C19; human, microsomes
  inhibition at 0.05 µM: 0%
  inhibition at 1.5 µM: 3.3%
  inhibition at 5 µM: 8.2%
  inhibition at 15 µM: 14%
  inhibition at 50 µM: 2.9%
[1]
  IC50: > 100 µM
[1]; DPP8 versus DPP4
  Selectivity (DPP8 column): > 1250000
[1]; in words
  inhibition effect to DPP8: no inhibition effect
[2]; CD-1, mouse, blood, oral, dosage 5 mg/kg, read-out: Cmax in mice
  Cmax: 200 to 500 nM
[2]; [4]
  concentration at 0.5 h: 123 ± 30.2 ng/mL
  concentration at 1 h: 183 ± 19.1 ng/mL
  concentration at 2 h: 211 ± 83 ng/mL
  concentration at 4 h: 145 ± 40.9 ng/mL
[2]; CD-1, mouse, plasma, oral, gavage 5 mg/kg, 8.00 h, read-out: Plasma drug concentration
  concentration at 8 h: 8.03 ± 3.71 ng/mL
[2]; [5]
  AUC(0-inf): 858 ± 185 ng·h/mL
  AUC(0-t): 844 ± 181 ng·h/mL
  Tmax: 1.33 ± 0.577 h
  half-life: 1.37 ± 0.317 h
  MRT last: 2.87 ± 0.0589 h
[2]; CD-1, mouse, plasma, po, gavage 5 mg/kg, read-out: MRT0-inf
  MRT inf: 3 ± 0.111 h
[2]; [6]
  AUC(0-inf): 567 ± 56.1 ng·h/mL
  AUC(0-t): 555 ± 54.7 ng·h/mL
  clearance: 59.1 ± 5.63 mL/min/kg
  MRT last: 0.836 ± 0.0919 h
[2]; [7]
  concentration at 0.25 h: 529 ± 93.4 ng/mL
  concentration at 0.5 h: 344 ± 32.7 ng/mL
  concentration at 1 h: 161 ± 21.2 ng/mL
  concentration at 2 h: 47.5 ± 13.6 ng/mL
  concentration at 4 h: 11.9 ± 2.24 ng/mL
[2]; CD-1, mouse, plasma, intravenous injection 2 mg/kg, read-out: MRT0-int
  MRT: 0.953 ± 0.123 h
[2]; CD-1, mouse, plasma, intravenous injection 2 mg/kg, read-out: Vdss
  Vd: 3.41 ± 0.745 L/kg
[2]; gavage 5 mg/kg, 12.00 h
  Plasma drug concentration (ng/ml): BQL
[2]; gavage 5 mg/kg, 24.00 h
  Plasma drug concentration (ng/ml): BQL
[2]; intravenous injection 2 mg/kg, 8.00 h
  Plasma drug concentration (ng/ml): BQL
[2]; intravenous injection 2 mg/kg, 12.00 h
  Plasma drug concentration (ng/ml): BQL
[2]; intravenous injection 2 mg/kg, 24.00 h
  Plasma drug concentration (ng/ml): BQL
[2]; mouse, plasma, oral, gavage 5 mg/kg versus intravenous 2 mg/kg, CD-1 mice
  bioavailability: 60.5%
[2]; mouse, plasma, oral, gavage 5 mg/kg, CD-1 mice, read-out: Plasma drug concentration
  concentration at 0.25 h: 48 ± 27.9 ng/mL
[2]; mouse, plasma, po, gavage 5 mg/kg, CD-1 mice, read-out: Cmax
  Cmax: 223 ± 68.1 ng/mL
[2]; mouse, plasma, intravenous injection 2 mg/kg, CD-1 mice
  half-life: 1.09 ± 0.623 h
[2]; mouse, plasma, intravenous injection 2 mg/kg, CD-1 mice, 0.5 min, read-out: Plasma drug concentration
  concentration at 0.5 min: 759 ± 133 ng/mL
[3]; obese mice B6.Cg-Lepob/JNju, drug at -60 min (0.6 mg/ml, 5 ml/kg), 2 g/kg glucose at 0 min
  Blood glucose concentration 0 min: 10.90 mmol/L
[3]; obese mice, in words
  hypoglycemic effect: good hypoglycemic effect
[3]; obese mice, 15 min after glucose
  Blood glucose concentration 15 min: 32.88 mmol/L
[3]; obese mice, 30 min after glucose
  Blood glucose concentration 30 min: 25.93 mmol/L
[3]; obese mice, 45 min after glucose
  Blood glucose concentration 45 min: 17.03** mmol/L
[3]; obese mice, 60 min after glucose
  Blood glucose concentration 60 min: 13.88** mmol/L
[3]; obese mice, 120 min after glucose
  Blood glucose concentration 120 min: 9.53* mmol/L
[3]; obese mice, blood glucose AUC
  AUC0-120 min: 2025*
